The text below walks through data of patent publication US8013153B2, “Substituted pyrimidine kinase inhibitors” (Janssen Pharmaceutica, N.V., priority 2006, dated 2011).

For test [1], the target named is T1, CDK1:Cyclin-B (Homo sapiens, UniProt P06493).
T1 construct: purchased New England Biolabs, Beverly, Mass; 6020; host or cells: insect cells
As to the kind of experiment: CDK1 Screening Assay. Type of test: biochemical.

The target in test [2] is T2, rat VEGF-R2 kinase domain (Rattus norvegicus, UniProt O08775).
T2 construct: amino acids 786-1343 of the rat VEGF-R2 kinase domain; polyhistidine (N)
T2 sequence (O08775 786-1343): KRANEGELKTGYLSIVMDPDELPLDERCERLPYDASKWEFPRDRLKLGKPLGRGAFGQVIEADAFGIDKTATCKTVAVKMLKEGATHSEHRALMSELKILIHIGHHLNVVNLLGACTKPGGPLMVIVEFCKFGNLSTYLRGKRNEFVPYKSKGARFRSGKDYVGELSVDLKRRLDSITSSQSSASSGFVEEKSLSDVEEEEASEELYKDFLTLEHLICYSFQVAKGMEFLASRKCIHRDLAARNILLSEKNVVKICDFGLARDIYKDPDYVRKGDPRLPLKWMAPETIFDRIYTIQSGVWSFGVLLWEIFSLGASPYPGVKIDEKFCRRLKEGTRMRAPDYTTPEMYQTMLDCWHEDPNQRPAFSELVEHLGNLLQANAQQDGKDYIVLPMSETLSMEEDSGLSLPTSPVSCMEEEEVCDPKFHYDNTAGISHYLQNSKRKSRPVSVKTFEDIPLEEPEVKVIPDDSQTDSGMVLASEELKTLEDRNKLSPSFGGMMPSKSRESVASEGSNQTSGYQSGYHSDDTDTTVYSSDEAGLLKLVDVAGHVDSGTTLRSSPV
In words: VEGF-R2 Screening Assay. In kind it is biochemical. The note with it: > means no observed 50% inhibition at the indicated test concentration; ~ means approximately 50% inhibition at that concentration; read-out: IC50 VEGF-R2.

Test [3] has as its target T3, murine Aurora-A (Mus musculus, UniProt P97477).
T3 construct: replaced with the full length protein encoding the murine Aurora-A; made in house; host or cells: sf9 insect cells
T3 sequence (P97477 1-395): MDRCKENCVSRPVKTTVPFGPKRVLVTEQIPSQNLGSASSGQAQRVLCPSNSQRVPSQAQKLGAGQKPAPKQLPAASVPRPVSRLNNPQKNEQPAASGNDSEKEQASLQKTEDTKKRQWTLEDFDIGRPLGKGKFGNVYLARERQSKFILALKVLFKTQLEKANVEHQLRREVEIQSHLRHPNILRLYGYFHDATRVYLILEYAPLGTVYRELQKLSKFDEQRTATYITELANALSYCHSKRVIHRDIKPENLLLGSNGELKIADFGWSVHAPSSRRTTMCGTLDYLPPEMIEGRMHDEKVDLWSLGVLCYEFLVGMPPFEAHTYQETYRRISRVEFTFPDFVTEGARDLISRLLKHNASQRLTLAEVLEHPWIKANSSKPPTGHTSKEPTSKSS
As to the kind of experiment: Aurora-A Screening Assay. In kind it is biochemical.

Test [4] has as its target T4, HER2 cytoplasmic domain (Homo sapiens, UniProt P04626).
T4 construct: polyhistidine (N)
In words: HER2 Kinase Screening Assay. In kind it is biochemical. The note with it: > means no observed 50% inhibition at the indicated test concentration; ~ means approximately 50% inhibition at that concentration.

The test system of test [5] is HeLa cervical adenocarcinoma. As to the kind of experiment: Inhibition of in vitro cell proliferation (HeLa).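 Note: cells exposed to compound for 24 h, then labelled 24 h with methyl 14C-thymidine, with uptake into DNA counted by scintillation against DMSO-only control wells.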 Type of test: cell-based, human. The settings on record: Homo sapiens, 14C-thymidine incorporation. (In general: Incorporation of labelled thymidine or its analogues reports DNA synthesis.)
Test [6] has as its system HCT-116 colon carcinoma. As to the kind of experiment: Inhibition of in vitro cell proliferation (HCT116).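 Note: cells exposed to compound for 24 h, then 14C-thymidine added for a further 24 h and its uptake into DNA counted by scintillation, DMSO-only wells as control.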 The settings on record: Homo sapiens, HCT-116, 14C-thymidine incorporation. Type of test: cell-based, human.
For test [7], the system named is A375 malignant melanoma. In words: Inhibition of in vitro cell proliferation (A375).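 Note: cells plated for 24 h, given compound for 24 h, then labelled with 14C-thymidine for another 24 h, with DMSO-only wells as control and counts read by scintillation.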 In kind it is cell-based, human. The note with it: Homo sapiens, A-375, 14C-thymidine incorporation.

pIC50: −log10 of the molar value.

T1 sequence (P06493 whole entry): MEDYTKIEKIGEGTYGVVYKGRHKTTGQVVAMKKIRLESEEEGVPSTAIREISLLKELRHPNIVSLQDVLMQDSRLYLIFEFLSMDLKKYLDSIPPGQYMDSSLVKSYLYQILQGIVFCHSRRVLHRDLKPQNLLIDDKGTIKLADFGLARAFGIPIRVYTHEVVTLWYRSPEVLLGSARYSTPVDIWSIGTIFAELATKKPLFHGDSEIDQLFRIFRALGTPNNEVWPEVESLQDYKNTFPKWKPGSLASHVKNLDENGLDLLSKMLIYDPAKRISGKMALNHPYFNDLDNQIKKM
T1 sequence (P14635 whole entry partner): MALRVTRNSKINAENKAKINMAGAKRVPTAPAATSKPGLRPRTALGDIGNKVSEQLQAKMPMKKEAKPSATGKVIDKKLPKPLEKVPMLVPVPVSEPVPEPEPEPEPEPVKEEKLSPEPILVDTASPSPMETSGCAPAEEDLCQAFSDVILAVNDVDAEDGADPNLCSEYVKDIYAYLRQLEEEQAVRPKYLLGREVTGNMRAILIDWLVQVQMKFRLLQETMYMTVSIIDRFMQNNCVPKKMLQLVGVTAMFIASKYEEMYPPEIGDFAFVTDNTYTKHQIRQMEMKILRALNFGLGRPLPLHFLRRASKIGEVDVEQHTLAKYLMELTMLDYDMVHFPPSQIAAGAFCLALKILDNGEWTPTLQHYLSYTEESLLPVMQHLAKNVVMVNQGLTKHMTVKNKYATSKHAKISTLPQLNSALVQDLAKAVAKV
T4 sequence (P04626 676-1255 limits assumed): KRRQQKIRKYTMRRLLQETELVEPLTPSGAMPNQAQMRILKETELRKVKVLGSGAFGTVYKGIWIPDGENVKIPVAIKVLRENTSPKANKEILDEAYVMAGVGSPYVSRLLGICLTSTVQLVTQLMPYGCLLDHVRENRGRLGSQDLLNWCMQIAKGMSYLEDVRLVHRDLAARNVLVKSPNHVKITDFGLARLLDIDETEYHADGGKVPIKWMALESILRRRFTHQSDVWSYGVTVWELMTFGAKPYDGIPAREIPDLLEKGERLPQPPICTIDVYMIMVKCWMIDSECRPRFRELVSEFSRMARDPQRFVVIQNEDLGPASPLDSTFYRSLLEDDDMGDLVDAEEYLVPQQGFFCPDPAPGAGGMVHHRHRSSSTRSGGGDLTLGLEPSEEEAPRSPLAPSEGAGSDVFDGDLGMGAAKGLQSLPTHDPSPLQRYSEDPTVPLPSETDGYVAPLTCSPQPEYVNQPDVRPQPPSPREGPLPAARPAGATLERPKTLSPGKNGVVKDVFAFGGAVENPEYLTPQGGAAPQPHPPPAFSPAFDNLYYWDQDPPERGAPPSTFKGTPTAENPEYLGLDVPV

Consider `CON=Cc1c(N)ncnc1Oc1ccc(NC(=O)Nc2nc(C)c(C)s2)c(Cl)c1` [Cpd 92, 1-{4-[6-amino-5-(methoxyimino-methyl)-pyrimidin-4-yloxy]-2-chloro-phenyl}-3-(4,5-dimethyl-thiazol-2-yl)-urea], for which the pIC50 in test [1] was < 4.00; in test [2], 8.70; in test [3], < 4.00; in test [4] it was < 6.00. In addition, the figures for the IC50 in test [5], in test [6] and in test [7] were 23.4 µM, 16.9 µM and 6.92 µM, respectively.
For `CON=Cc1c(N)ncnc1Oc1ccc(NC(=O)NCCCCN2CCCC2)c(Cl)c1` [Cpd 84, 1-{4-[6-amino-5-(methoxyimino-methyl)-pyrimidin-4-yloxy]-2-chloro-phenyl}-3-(4-pyrrolidin-1-yl-butyl)-urea], the pIC50 in test [1] is < 4.00; in test [2], 6.12; in test [3], < 5.00; in test [4] it was < 5.00. In addition, the IC50 was > 10 µM in test [5], > 10 µM in test [6] and > 1 µM in test [7].
For the compound `CON=Cc1c(N)ncnc1Oc1ccc(NC(=O)NCc2ccc(F)cc2F)c(Cl)c1` [Cpd 78, 1-{4-[6-amino-5-(methoxyimino-methyl)-pyrimidin-4-yloxy]-2-chloro-phenyl}-3-(2,4-difluoro-benzyl)-urea], the pIC50 in test [1] was < 4.00; in test [2], 7.99; in test [3], < 4.00; in test [4], < 4.00. In addition, the IC50 in test [5], in test [6] and in test [7] was > 100 µM in each case.
As for `CON=Cc1c(N)ncnc1Oc1ccc(NC(=O)NC(C)C)c(Cl)c1` [Cpd 80, 1-{4-[6-amino-5-(methoxyimino-methyl)-pyrimidin-4-yloxy]-2-chloro-phenyl}-3-isopropyl-urea], the pIC50 in test [1] is < 4.00; in test [2], 7.14; in test [3], < 5.00; in test [4], < 5.00. For the same compound, the IC50 in test [5] is > 10 µM; in test [6] it was > 10 µM; in test [7], > 1 µM.
In the case of `CON=Cc1c(N)ncnc1Oc1ccc(NC(=O)NC2CC2)c(Cl)c1` [Cpd 85, 1-{4-[6-amino-5-(methoxyimino-methyl)-pyrimidin-4-yloxy]-2-chloro-phenyl}-3-cyclopropyl-urea], the pIC50 in test [1] is < 4.00; in test [2] it was 7.54; in test [3] it was < 4.00; in test [4] it was < 4.00. For the same compound, the IC50 was > 100 µM in test [5], > 100 µM in test [6] and > 10 µM in test [7].
For `Cc1cc2c(F)c(Oc3ncnc(N)c3C=NOCCCCO)ccc2[nH]1` [Cpd 38, 4-amino-6-(4-fluoro-2-methyl-1H-indol-5-yloxy)-pyrimidine-5-carbaldehyde O-(4-hydroxy-butyl)-oxime], the pIC50 is < 4.00 in test [1], 7.24 in test [2], < 4.00 in test [3] and 6.06 in test [4]. Further, the IC50 was 1.83 µM in test [5], 2.34 µM in test [6] and 0.618 µM in test [7].
Take `CON=Cc1c(N)ncnc1Oc1ccc(NC(=O)Nc2ccccc2Cl)c(Cl)c1` [Cpd 55, 1-{4-[6-amino-5-(methoxyimino-methyl)-pyrimidin-4-yloxy]-2-chloro-phenyl}-3-(2-chloro-phenyl)-urea]: the pIC50 is < 4.00 in test [1], 8.59 in test [2], < 5.00 in test [3] and 5.74 in test [4]. Moreover, the 50% inhibitory concentration (IC50) in test [5], in test [6] and in test [7] was > 10 µM in each case.
`Cc1cc2c(F)c(Oc3ncnc(N)c3C=NOCCCCN3CCCC3)ccc2[nH]1` [Cpd 25, 4-amino-6-(4-fluoro-2-methyl-1H-indol-5-yloxy)-pyrimidine-5-carbaldehyde O-(4-pyrrolidin-1-yl-butyl)-oxime]: the pIC50 is < 4.00 in test [1], 6.89 in test [2], < 5.00 in test [3] and 6.22 in test [4]. The IC50 in test [5] was > 100 µM; in test [6], 0.1 µM; in test [7], > 100 µM.
On to `Cc1cc2c(F)c(Oc3ncnc(N)c3C=NOCCCCN3CCCCC3)ccc2[nH]1` [Cpd 24, 4-amino-6-(4-fluoro-2-methyl-1H-indol-5-yloxy)-pyrimidine-5-carbaldehyde O-(4-piperidin-1-yl-butyl)-oxime], for which the pIC50 in test [1] was < 4.00; in test [2] it was 7.07; in test [3] it was < 4.00; in test [4], 6.55. The half-maximal inhibitory concentration (IC50) in test [5], in test [6] and in test [7] was > 100 µM throughout.
As to `CON=Cc1c(N)ncnc1Oc1ccc(NC(=O)Nc2ccccc2)c(Cl)c1` [Cpd 54, 1-{4-[6-amino-5-(methoxyimino-methyl)-pyrimidin-4-yloxy]-2-chloro-phenyl}-3-phenyl-urea], the pIC50 in test [1] is < 4.00; in test [2], 8.52; in test [3], < 4.00; in test [4] it was < 4.00. Further, the concentration for half-maximal inhibition (IC50) in test [5], in test [6] and in test [7] was > 100 µM in each case.
Regarding `CON=Cc1c(N)ncnc1Oc1ccc(NC(=O)Nc2nc(C)cs2)c(Cl)c1` [Cpd 89, 1-{4-[6-amino-5-(methoxyimino-methyl)-pyrimidin-4-yloxy]-2-chloro-phenyl}-3-(4-methyl-thiazol-2-yl)-urea], the pIC50 in test [1] was < 4.00; in test [2], 8.41; in test [3], < 4.00; in test [4], < 6.00. For the same compound, the IC50 was > 10 µM in test [5], > 10 µM in test [6] and 2.19 µM in test [7].
As to `CON=Cc1c(N)ncnc1Oc1ccc2c(c1)cc(C)n2C(=O)NCc1ccccc1` [Cpd 47, 5-[6-amino-5-(methoxyimino-methyl)-pyrimidin-4-yloxy]-2-methyl-indole-1-carboxylic acid benzylamide], the negative-log IC50 (pIC50) in test [1], in test [2], in test [3] and in test [4] was < 4.00 throughout. For the same compound, the IC50 in test [5], in test [6] and in test [7] was > 10 µM throughout.
Turning to `CON=Cc1c(N)ncnc1Oc1ccc(NC(=O)Nc2ccccn2)c(Cl)c1` [Cpd 86, 1-{4-[6-amino-5-(methoxyimino-methyl)-pyrimidin-4-yloxy]-2-chloro-phenyl}-3-pyridin-2-yl-urea], the pIC50 in test [1] was < 4.00; in test [2], 7.47; in test [3], < 4.00; in test [4], < 4.00. Also, the figures for the IC50 in test [5], in test [6] and in test [7] were > 10 µM, > 10 µM and 6.25 µM, respectively.
`CON=Cc1c(N)ncnc1Oc1ccc(NC(=O)OC)c(Cl)c1` [Cpd 95, {4-[6-amino-5-(methoxyimino-methyl)-pyrimidin-4-yloxy]-2-chloro-phenyl}-carbamic acid methyl ester]: the negative-log IC50 (pIC50) in test [1] is < 4.00; in test [2], 6.82; in test [3], < 4.00; in test [4] it was < 5.00. Also, the figures for the IC50 in test [5], in test [6] and in test [7] were 4.95 µM, 3.77 µM and 3.5 µM, respectively.
With `CON=Cc1c(N)ncnc1Oc1ccc(NC(=O)Nc2ccc(C)cc2)c(Cl)c1` [Cpd 77, 1-{4-[6-amino-5-(methoxyimino-methyl)-pyrimidin-4-yloxy]-2-chloro-phenyl}-3-p-tolyl-urea], the pIC50 was < 4.00 in test [1], 8.80 in test [2], < 4.00 in test [3] and < 4.00 in test [4]. Also, the IC50 in test [5], in test [6] and in test [7] was > 100 µM each time.
For the compound `CON=Cc1c(N)ncnc1Oc1ccc(NC(=O)NC2CCCCC2)c(Cl)c1` [Cpd 65, 1-{4-[6-amino-5-(methoxyimino-methyl)-pyrimidin-4-yloxy]-2-chloro-phenyl}-3-cyclohexyl-urea], the pIC50 in test [1] is < 4.00; in test [2] it was 8.19; in test [3], < 4.00; in test [4], < 5.00. Moreover, the IC50 in test [5], in test [6] and in test [7] was > 100 µM each time.
As for `Cc1cc2c(F)c(Oc3ncnc(N)c3C=NOCCCN3CCNCC3)ccc2[nH]1` [Cpd 21, 4-amino-6-(4-fluoro-2-methyl-1H-indol-5-yloxy)-pyrimidine-5-carbaldehyde O-(3-piperazin-1-yl-propyl)-oxime], the pIC50 in test [1] was < 4.00; in test [2], 7.44; in test [3], < 5.00; in test [4], 6.12. Besides, the IC50 in test [5] is 24.5 µM; in test [6] it was 68.1 µM; in test [7], 11.2 µM.

The term pIC50 denotes the negative decadic logarithm of the IC50, by convention in mol/L. The term IC50 denotes the midpoint of a concentration-inhibition curve.
